Patent publication US8703771B2, “Preparation method of dihydroindene amide compounds, their pharmaceutical compositions containing compounds thereof and use as protein kinases inhibitor” (Harbin Gloria Pharmaceuticals Co., Ltd., priority 2008, dated 2014)
Structures can show the parent of a compound that is named as a salt. Where two headings read alike, the source gives them in different places.

What was measured:
c-Kit [1] = target: T1, c-Kit (Homo sapiens (Human), UniProt P10721); assay: Mobility Shift Assay of c-Kit kinase enzyme activity; assay type: biochemical; details: ATP at Km 87 μM, 40 minutes at 28° C., pre-activated c-Kit
T1 sequence (P10721 26-976): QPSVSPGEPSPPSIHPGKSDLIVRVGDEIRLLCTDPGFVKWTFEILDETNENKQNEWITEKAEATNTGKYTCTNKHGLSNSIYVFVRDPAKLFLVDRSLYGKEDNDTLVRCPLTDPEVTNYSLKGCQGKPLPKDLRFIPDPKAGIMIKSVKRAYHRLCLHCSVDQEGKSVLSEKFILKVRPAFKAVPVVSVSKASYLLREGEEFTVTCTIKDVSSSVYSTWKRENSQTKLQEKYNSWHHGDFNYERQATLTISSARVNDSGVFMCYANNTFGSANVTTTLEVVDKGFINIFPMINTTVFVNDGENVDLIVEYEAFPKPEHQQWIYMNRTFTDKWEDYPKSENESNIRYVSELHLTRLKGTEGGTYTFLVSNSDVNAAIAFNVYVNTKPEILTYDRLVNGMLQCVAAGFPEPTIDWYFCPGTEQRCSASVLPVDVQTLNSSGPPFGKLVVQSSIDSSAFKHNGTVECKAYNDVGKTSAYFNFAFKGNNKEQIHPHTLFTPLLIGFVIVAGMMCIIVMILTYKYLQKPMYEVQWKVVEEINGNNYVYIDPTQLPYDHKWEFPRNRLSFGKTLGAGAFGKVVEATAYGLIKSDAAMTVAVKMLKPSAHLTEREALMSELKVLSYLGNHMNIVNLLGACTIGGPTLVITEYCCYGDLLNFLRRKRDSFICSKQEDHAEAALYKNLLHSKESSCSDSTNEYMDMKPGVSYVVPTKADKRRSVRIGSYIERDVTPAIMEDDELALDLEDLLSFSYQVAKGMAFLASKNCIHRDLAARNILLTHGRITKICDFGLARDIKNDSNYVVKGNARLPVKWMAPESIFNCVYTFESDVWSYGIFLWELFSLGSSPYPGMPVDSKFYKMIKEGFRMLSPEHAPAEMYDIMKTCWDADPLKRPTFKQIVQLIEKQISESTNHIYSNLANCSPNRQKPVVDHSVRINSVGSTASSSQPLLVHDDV
Procedure: (§1) The activity of the compounds of this invention on Abl, c-Kit and PDGFR kinases was tested by Mobility Shift Assay (MSA).
(§2) • 1. Preparation of kinase buffer and stop buffer;
(§3) The compound was dissolved in DMSO and then serial dilutions were prepared; • 3. Preparation of kinase solution: Kinase solution was obtained by dissolving kinases in the kinase buffer mentioned above. With regard to c-Kit kinase, the pre-activation treatments should be carried out as follows. 700 nM c-Kit, 2 mM ATP, 4 mM DTT and 10 mM MgCl2 were dissolved in kinase buffer. After being incubated at 28° C. for 15 minutes, the solution was added to the kinase buffer; • 4. Preparation of polypeptide solution: Polypeptide FAM and ATP were dissolved in kinase buffer; • 5. The kinase solution was transferred to a culture plate and incubated for 10 minutes at room temperature. […] The polypeptide solution was transferred to the culture plate. […] The final concentrations of MgCl2 in all circumstances were all 10 mM; • 7. The mixture in each well of the plate was incubated at 28° C., for 1 hour for Abl, 40 minutes for c-Kit and 5 hours for PDGFR. The stop buffer was then added to terminate the reaction; • 8. Data were collected in Caliper and then input into the software XLfit to calculate IC50 values.

PDGFR (Homo sapiens) = assay: Mobility Shift Assay of PDGFR kinase enzyme activity; assay type: biochemical; details: ATP at Km 38 μM, 5 hours at 28° C.
Chain of PDGFR (Homo sapiens) (P09619 33-1106 limits assumed): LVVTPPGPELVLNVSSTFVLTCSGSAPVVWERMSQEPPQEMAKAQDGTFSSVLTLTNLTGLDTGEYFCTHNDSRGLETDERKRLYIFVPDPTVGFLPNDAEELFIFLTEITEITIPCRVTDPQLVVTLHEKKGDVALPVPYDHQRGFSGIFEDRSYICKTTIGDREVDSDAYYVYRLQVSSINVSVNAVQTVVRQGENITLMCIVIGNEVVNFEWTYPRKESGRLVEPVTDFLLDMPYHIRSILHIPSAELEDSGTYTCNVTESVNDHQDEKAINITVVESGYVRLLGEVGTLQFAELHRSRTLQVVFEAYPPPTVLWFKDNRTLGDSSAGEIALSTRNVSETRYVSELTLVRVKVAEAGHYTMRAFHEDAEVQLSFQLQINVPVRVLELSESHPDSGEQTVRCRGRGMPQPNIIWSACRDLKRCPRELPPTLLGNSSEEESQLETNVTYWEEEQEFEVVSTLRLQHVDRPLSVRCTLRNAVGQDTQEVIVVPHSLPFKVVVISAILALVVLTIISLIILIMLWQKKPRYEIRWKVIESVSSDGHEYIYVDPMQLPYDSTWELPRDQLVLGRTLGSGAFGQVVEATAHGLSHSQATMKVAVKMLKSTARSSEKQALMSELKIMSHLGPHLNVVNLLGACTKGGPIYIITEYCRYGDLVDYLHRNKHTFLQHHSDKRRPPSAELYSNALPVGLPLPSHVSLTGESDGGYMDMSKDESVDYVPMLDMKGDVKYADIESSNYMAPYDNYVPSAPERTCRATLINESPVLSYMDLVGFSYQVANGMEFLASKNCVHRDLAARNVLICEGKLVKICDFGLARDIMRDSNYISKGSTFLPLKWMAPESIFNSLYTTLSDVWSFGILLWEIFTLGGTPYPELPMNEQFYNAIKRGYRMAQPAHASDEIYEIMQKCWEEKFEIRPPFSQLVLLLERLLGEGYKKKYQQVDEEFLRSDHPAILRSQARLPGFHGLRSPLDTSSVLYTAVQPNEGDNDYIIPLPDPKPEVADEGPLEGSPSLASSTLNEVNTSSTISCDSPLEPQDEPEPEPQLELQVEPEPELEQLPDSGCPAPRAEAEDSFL
Procedure: as §1, §2, §3

[2] = test system: chronic myeloid leukaemia cell KU812; assay: MTS growth inhibition assay, KU812 cell strain; assay type: cell-based; details: MTS/PMS, 72 hours
Procedure: (§4) This invention also tested the inhibitory activity of the compounds of this invention on the growth of chronic myeloid leukaemia cell K562, KU812, and MEG-01, acute myeloid leukaemia cell Kasumi-1 and acute lymphatic leukemia cell Sup-B15.
(§5) 1. Preparation of Assay Solution
(§6) (1) Preparation of PMS solution: PMS was dissolved in DPBS to give a concentration of […]. The solution was then filtered into a sterile and lightproof container;
(§7) (2) Preparation of MTS solution: a) 21 ml DPBS was added to a lightproof container; b) 42 mg MTS powder was weighted and then added to DPBS; c) the above were mixed on a electromagnetic stirrer until the powder was dissolved; d) the pH value was measured. […] If the pH was higher than 6.5, it should be adjust to 6.5 with 1 N HCl; e) the solution was filtered into a sterile and lightproof container; (3) Preparation of MTS/PMS mixture: a) 2 ml of the MTS solution was transferred to a tube; b) 100 μL of the PMS solution was added to the tube; c) the tube was vortexed gently to mix the solution thoroughly. 2. […] 3. […] 4.

[3] = test system: chronic myeloid leukaemia cell MEG-01; assay: MTS growth inhibition assay, MEG-01 cell strain; assay type: cell-based; details: MTS/PMS, 72 hours
Procedure: as §4, §5, §6, §7

[4] = test system: acute lymphatic leukemia cell Sup-B15; assay: MTS growth inhibition assay, Sup-B15 cell strain; assay type: cell-based; details: MTS/PMS, 72 hours
Procedure: as §4, §5, §6, §7

[5] = test system: chronic myeloid leukaemia cell K562; details: read-out: IC50 (nM) inhibition of K562 cell growth; CellTiter-Glo; 72 hours
[6] = test system: chronic myeloid leukaemia cell K562; assay: cells; details: Homo sapiens, K562, 72 h, read-out: IC50 (nM) inhibition of K562 cell growth
[7] = test system: chronic myeloid leukaemia cell K562; assay: MTS growth inhibition assay, K562 cell strain; assay type: cell-based; details: Homo sapiens, MTS/PMS, 72 hours
Procedure: as §4, §5, §6, §7

[8] = test system: acute myeloid leukaemia cell Kasumi-1; assay: MTS growth inhibition assay, Kasumi-1 cell strain; assay type: cell-based; details: Homo sapiens, MTS/PMS, 72 hours
Procedure: as §4, §5, §6, §7

c-Kit [9] = target: T1, c-Kit; assay: 33P-ATP kinase assay, c-Kit; assay type: biochemical; details: 33P-ATP assay; ATP concentration 30 μM; 2 mM MnCl2 in buffer
Procedure: (§8) Inhibitory activity of the compounds of this invention on Abl, c-Kit and PDGFR mutant kinases was tested by the phosphor isotope-labelled ATP (^33P-ATP) assay. • 1. Substrate solution was prepared using newly-prepared reaction buffer. The buffer includes: 20 mM HEPES, pH 7.5, 10 mM MgCl2, 1 mM EGTA, 0.02% Brij 35, 0.02 mg/ml BSA, 0.1 mM Na3VO4, 2 mM DTT, 1% DMSO. […] Required co-enzymes were added to the above substrate solution; • 3. Kinases were added and mixed gently; • 4. The tested compound was dissolved in DMSO, and then added to the above kinase solution by using Acoustic technique (Echo550, nanoliter range) and incubated for 20 minutes; • 5. ^33P-ATP was added to the above reaction mixture to initiate the reaction; • 6. The mixture was incubated for 2 hours at room temperature; • 7. The activity of kinases was tested by filtration-combination; • 8. The data were processed in Excel and the control data were subtracted. A curve was drawn by the GraphPad Prism software to get the IC50 value.

c-Kit (D816H) = c-Kit (D816H) (Homo sapiens (Human), UniProt P10721, D816H); assay: 33P-ATP kinase assay, c-Kit (D816H); assay type: biochemical; details: 33P-ATP assay; ATP concentration 30 μM
Chain of c-Kit (D816H) (P10721 26-976 D816H): as the sequence (P10721 26-976) above, with D791H counted along it
Procedure: as §8

c-Kit (D816V) = c-Kit (D816V) (Homo sapiens (Human), UniProt P10721, D816V); assay: 33P-ATP kinase assay, c-Kit (D816V); assay type: biochemical; details: 33P-ATP assay; ATP concentration 30 μM
Chain of c-Kit (D816V) (P10721 26-976 D816V): as the sequence (P10721 26-976) above, with D791V counted along it
Procedure: as §8

c-Kit (T670I) = c-Kit (T670I) (Homo sapiens (Human), UniProt P10721, T670I); assay: 33P-ATP kinase assay, c-Kit (T670I); assay type: biochemical; details: 33P-ATP assay; ATP concentration 30 μM
Chain of c-Kit (T670I) (P10721 26-976 T670I): as the sequence (P10721 26-976) above, with T645I counted along it
Procedure: as §8

c-Kit (V560G) = c-Kit (V560G) (Homo sapiens (Human), UniProt P10721, V560G); assay: 33P-ATP kinase assay, c-Kit (V560G); assay type: biochemical; details: 33P-ATP assay; ATP concentration 30 μM
Chain of c-Kit (V560G) (P10721 26-976 V560G): as the sequence (P10721 26-976) above, with V535G counted along it
Procedure: as §8

c-Kit (V654A) = c-Kit (V654A) (Homo sapiens (Human), UniProt P10721, V654A); assay: 33P-ATP kinase assay, c-Kit (V654A); assay type: biochemical; details: 33P-ATP assay; ATP concentration 30 μM; 2 mM MnCl2 in buffer
Chain of c-Kit (V654A) (P10721 26-976 V654A): as the sequence (P10721 26-976) above, with V629A counted along it
Procedure: as §8

| Structure (SMILES) | IC50 (c-Kit [1]) | IC50 (PDGFR (Homo sapiens)) | also measured |
| --- | --- | --- | --- |
| CN[C@@H]1C[C@H]2O[C@@](C)([C@@H]1OC)n1c3ccccc3c3c4c(c5c6ccccc6n2c5c31)C(=O)NC4 [Staurosporine] | – | – | IC50 [2]: 9.57 nM; IC50 [3]: 8.97 nM; IC50 [4]: 6.84 nM; IC50 [5]: 139 nM |
| Cc1ccc(NC(=O)c2ccc3c(c2)CCC3N2CCN(C)CC2)cc1Nc1nccc(-c2cccnc2)n1 (stereo not shown) [EXAMPLE 1, 1-(4-methylpiperazin-1-yl)-N-(4-methyl-3-[(4-pyridin-3-ylpyrimidin-2-yl)amino]phenyl)-2,3-dihydro-1H-inden-5-carboxamide] | 22 nM | 17 nM | – |
| Cc1ccc(NC(=O)c2ccc3c(c2)CC[C@H]3N2CCN(C)CC2)cc1Nc1nccc(-c2cccnc2)n1 [EXAMPLE 12, (1R)-1-(4-methylpiperazin-1-yl)-N-(4-methyl-3-[(4-pyridin-3-ylpyrimidin-2-yl)amino]phenyl)-2,3-dihydro-1H-indene-5-carboxamide] | 2250 nM | 53 nM | IC50 [6]: 208 nM |
| Cc1ccc(NC(=O)c2ccc3c(c2)CC[C@@H]3N2CCN(C)CC2)cc1Nc1nccc(-c2ccncc2)n1 [EXAMPLE 15, (1S)-1-(4-methylpiperazin-1-yl)-N-(4-methyl-3-[(4-pyridin-4-ylpyrimidin-2-yl)amino]phenyl)-2,3-dihydro-1H-indene-5-carboxamide] | 526 nM | 24 nM | IC50 [6]: 35 nM |
| Cc1cn(-c2cc(NC(=O)c3ccc(C)c(Nc4nccc(-c5cccnc5)n4)c3)cc(C(F)(F)F)c2)cn1 [Nilotinib] | – | – | IC50 [7]: 6.26 nM; IC50 ([2]; Homo sapiens, KU812): 2.1 nM; IC50 ([3]; Homo sapiens, MEG-01): 1.65 nM; IC50 [8]: 22.3 nM; IC50 ([4]; Homo sapiens, SUP-B15): 135 nM |
| Cc1ccc(NC(=O)c2ccc3c(c2)CC[C@@H]3N2CCN(C)CC2)cc1Nc1nccc(-c2cncnc2)n1 [EXAMPLE 13, (1S)—N-[3-(4,5′-bipyrimidin-2-ylamino)-4-methylphenyl]-1-(4-methylpiperazin-1-yl)-2,3-dihydro-1H-indene-5-carboxamide] | 15 nM | 13 nM | IC50 [6]: 2.2 nM |
| Cc1ccc(NC(=O)c2ccc3c(c2)CC[C@@H]3N2CCN(C)CC2)cc1Nc1nccc(-c2cccnc2)n1 [EXAMPLE 11, (1S)-1-(4-methylpiperazin-1-yl)-N-(4-methyl-3-[(4-pyridin-3-ylpyrimidin-2-yl)amino]phenyl)-2,3-dihydro-1H-indene-5-carboxamide] | 8.5 nM | 9.6 nM | IC50 (c-Kit [9]): 132 nM; IC50 (c-Kit (D816H)): 83.6 nM; IC50 (c-Kit (D816V)): 1740 nM; IC50 (c-Kit (T670I)): 2060 nM; IC50 (c-Kit (V560G)): 1.77 nM; IC50 (c-Kit (V654A)): 969 nM; IC50 [6]: 3.2 nM |
| Cc1ccc(NC(=O)c2ccc3c(c2)CC[C@@H]3N2CCN(C)CC2)cc1Nc1nccc(-c2cccnc2)n1 [EXAMPLE 16, (1S)-1-(4-methylpiperazin-1-yl)-N-(4-methyl-3-[(4-pyridin-3-ylpyrimidin-2-yl)amino]phenyl)-2,3-dihydro-1H-indene-5-carboxamide sulfate] | – | – | IC50 [7]: 0.25 nM; IC50 ([2]; Homo sapiens, KU812): 0.024 nM; IC50 ([3]; Homo sapiens, MEG-01): 0.085 nM; IC50 [8]: 11.2 nM; IC50 ([4]; Homo sapiens, SUP-B15): 39.6 nM |

Now from value to compound, other results behind:

| IC50 (c-Kit [1]) | IC50 (PDGFR (Homo sapiens)) | Structure (SMILES) | also measured |
| --- | --- | --- | --- |
| 32 nM | 20 nM | Cc1ccc(NC(=O)c2ccc3c(c2)CCC3N2CCN(CCO)CC2)cc1Nc1nccc(-c2cccnc2)n1 (stereo not shown) [EXAMPLE 6] | – |
| 16 nM | – | Cc1ccc(NC(=O)c2ccc3c(c2)CCC3N2CCNCC2)cc1Nc1nccc(-c2cccnc2)n1 (stereo not shown) [EXAMPLE 3, N-(4-methyl-3-[(4-pyridin-3-ylpyrimidin-2-yl)amino]phenyl)-1-piperazin-1-yl-2,3-dihydro-1H-indene-5-carboxamide] | – |
| 32 nM | 22 nM | Cc1ccc(NC(=O)c2ccc3c(c2)CCC3N2CCN(C)CC2)cc1Nc1nccc(-c2cncnc2)n1 (stereo not shown) [EXAMPLE 8, N-[3-(4,5′-bipyrimidine-2-ylamino)-4-methylphenyl]-1-(4-methylpiperazin-1-yl)-2,3-dihydro-1H-indene-5-carboxamide] | – |
| 51 nM | 15 nM | Cc1ccc(NC(=O)c2ccc3c(c2)CCC3N2CC[C@H](N(C)C)C2)cc1Nc1nccc(-c2cccnc2)n1 (stereo partly drawn) [EXAMPLE 9, 1-[(3S)-3-(dimethylamino)pyrrolidin-1-yl]-N-{4-methyl-3-[(4-pyridin-3-ylpyrimidin-2-yl)amino]phenyl}-2,3-dihydro-1H-indene-5-carboxamide] | – |
| 2260 nM | 65 nM | Cc1ccc(NC(=O)c2ccc3c(c2)CC[C@H]3N2CCN(C)CC2)cc1Nc1nccc(-c2cncnc2)n1 [EXAMPLE 14, (1R)—N-[3-(4,5′-bipyrimidin-2-ylamino)-4-methylphenyl]-1-(4-methylpiperazin-1-yl)-2,3-dihydro-1H-indene-5-carboxamide] | – |
| 23 nM | 18 nM | Cc1ccc(NC(=O)c2ccc3c(c2)CCC3N2CCN(C(C)C)CC2)cc1Nc1nccc(-c2cccnc2)n1 (stereo not shown) [EXAMPLE 5, 1-(4-isopropylpiperazin-1-yl)-N-(4-methyl-3-[(4-pyridin-3-ylpyrimidin-2-yl)amino]phenyl)-2,3-dihydro-1H-indene-5-carboxamide] | – |
| 1190 nM | 233 nM | Cc1ccc(NC(=O)c2ccc3c(c2)CCC3N2CCN(C(=O)OC(C)(C)C)CC2)cc1Nc1nccc(-c2cccnc2)n1 (stereo not shown) [EXAMPLE 2, tert-butyl 4-{5-[({4-methyl-3-[(4-pyridin-3-ylpyrimidin-2-yl)amino]phenyl}amino)carbonyl)-2,3-dihydro-1-H-inden-1-yl}piperazin-1-carboxylate] | – |
| 529 nM | 41 nM | CC(=O)N1CCN(C2CCc3cc(C(=O)Nc4ccc(C)c(Nc5nccc(-c6cccnc6)n5)c4)ccc32)CC1 (stereo not shown) [EXAMPLE 7, 1-[4-acetylpiperazin-1-yl)-N-(4-methyl-3-[(4-pyridin-3-ylpyrimidin-2-yl)amino]phenyl)-2,3-dihydro-1H-indene-5-carboxamide] | – |
